Results from patent publication US8519145B2, “Aryl compounds as PPAR ligands and their use” (Seoul National University Industry Foundation, priority 2006, dated 2013).

target: T1, hPPARδ (Homo sapiens, UniProt Q03181); experiment: not given; conditions: human PPARδ, literature; cited from earlier work
T1 construct: Full length PPARs plasmid DNA; expressed in transfected cells; host or cells: CV-1 cells
T1 sequence (Q03181 1-441): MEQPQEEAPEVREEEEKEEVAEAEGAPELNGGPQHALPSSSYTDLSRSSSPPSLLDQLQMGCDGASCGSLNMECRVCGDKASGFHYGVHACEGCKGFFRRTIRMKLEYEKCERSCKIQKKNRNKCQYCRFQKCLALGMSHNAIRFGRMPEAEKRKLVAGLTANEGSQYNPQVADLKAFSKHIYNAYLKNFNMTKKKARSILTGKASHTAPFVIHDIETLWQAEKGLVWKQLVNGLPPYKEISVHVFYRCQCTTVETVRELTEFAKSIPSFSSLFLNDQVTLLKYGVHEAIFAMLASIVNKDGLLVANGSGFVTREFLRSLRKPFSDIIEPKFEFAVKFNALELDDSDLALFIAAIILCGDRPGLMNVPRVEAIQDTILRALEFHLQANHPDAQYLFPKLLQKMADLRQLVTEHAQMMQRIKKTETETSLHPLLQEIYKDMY

| SMILES | EC50 |
| --- | --- |
| CCCc1c(OCCCOc2ccc(OCC(=O)O)cc2)ccc(C(C)=O)c1O [Compound L-165041] | 530 nM |

same assay, conditions: literature; cited from earlier work

| SMILES | selectivity to hPPARδ over PPARα or PPARγ |
| --- | --- |
| CCCc1c(OCCCOc2ccc(OCC(=O)O)cc2)ccc(C(C)=O)c1O [Compound L-165041] | 10 times |

tested on: not listed separately; experiment: Muscle endurance test (treadmill), treatment during pregnancy and/or lactation; assay type: in vivo, mice; conditions: treated in lactation, 10 mg/Kg/day
Method: Muscle Endurance Strengthening and Muscle Function Enhancing Effect
An animal test was performed to confirm muscle endurance strengthening and muscle function enhancing effect of the composition of the present invention. Most muscles are generated in developmental stage. Thus, S14, S46 and S106 (10 mg/Kg/day) were treated to pregnant mice in the period of either pregnancy or lactation or both pregnancy and lactation. Weight gaining and growth rate were not much different between fetuses of the control group and the treatment group. Muscles were observed after removing skin. As a result, muscles of the treatment group were red, unlike the control. ATPase staining and immunostaining were performed. As a result, type I muscle fiber was increased in the treatment group. The role of the changes of the muscle fiber in the enhancement of muscle endurance and muscle function was investigated by using treadmill test. As a result, running time was much extended in the treatment group, compared with the control.

| SMILES | increasing rate (treatment group/control group), length | increasing rate (treatment group/control group), time |
| --- | --- | --- |
| Cc1cc(SC(Cc2ccccc2)c2ccc(-c3cc(F)c(F)c(F)c3)cc2)ccc1OCC(=O)O (stereo not shown) [Compound 46] | 1.5 times | 1.5 times |

same assay, conditions: treated in pregnancy + lactation, 10 mg/Kg/day

| SMILES | increasing rate (treatment group/control group), length | increasing rate (treatment group/control group), time |
| --- | --- | --- |
| Cc1cc(SC(Cc2ccccc2)c2ccc(-c3cc(F)c(F)c(F)c3)cc2)ccc1OCC(=O)O (stereo not shown) [Compound 46] | 3.0 times | 2.8 times |

same assay, conditions: treated in pregnancy, 10 mg/Kg/day

| SMILES | increasing rate (treatment group/control group), length | increasing rate (treatment group/control group), time |
| --- | --- | --- |
| Cc1cc(SC(Cc2ccccc2)c2ccc(-c3cc(F)c(F)c(F)c3)cc2)ccc1OCC(=O)O (stereo not shown) [Compound 46] | 1.9 times | 1.9 times |

target: T2, hPPARγ (Homo sapiens, UniProt P37231); experiment: Transfection assay (luciferase reporter), PPARγ; assay type: cell-based; conditions: CV-1 cells, full length PPAR plasmid, 24 hours
T2 construct: Full length PPARs plasmid DNA; expressed in transfected cells; host or cells: CV-1 cells
T2 sequence (P37231 1-505): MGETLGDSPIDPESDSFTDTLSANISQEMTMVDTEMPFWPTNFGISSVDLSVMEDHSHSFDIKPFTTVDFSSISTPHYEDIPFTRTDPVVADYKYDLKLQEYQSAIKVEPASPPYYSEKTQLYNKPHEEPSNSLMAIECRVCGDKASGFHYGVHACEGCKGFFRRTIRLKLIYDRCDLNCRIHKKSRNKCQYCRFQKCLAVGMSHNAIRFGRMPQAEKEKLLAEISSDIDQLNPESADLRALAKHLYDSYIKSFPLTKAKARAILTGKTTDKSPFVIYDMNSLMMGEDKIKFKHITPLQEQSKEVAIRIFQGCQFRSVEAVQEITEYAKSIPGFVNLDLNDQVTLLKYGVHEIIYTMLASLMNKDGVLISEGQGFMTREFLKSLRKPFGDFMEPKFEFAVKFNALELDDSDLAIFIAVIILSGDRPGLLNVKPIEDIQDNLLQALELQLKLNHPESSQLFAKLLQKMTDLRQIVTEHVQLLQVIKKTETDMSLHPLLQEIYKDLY
Method: (§1) The PPARδ activity of the compound represented by formula (I) of the present invention was confirmed by transfection assay. In addition, the selectivity to PPAR subtypes, PPARα and PPARγ was examined. Cytotoxicity was tested by MTT assay and in vivo activity was investigated by animal experiment.
(§2) CV-1 cells were used in this assay. The cells were inoculated in a 96-well plate containing DMEM supplemented with 10% FBS, DBS (delipidated) and 1% penicillin/streptomycin and cultured in a 37° C., 5% CO2 incubator. The experiment was performed according to the steps of inoculation, transfection, sample treatment and confirmation. Particularly, CV-1 cells were inoculated in a 96 well-plate (5000 cells/well), followed by transfection 24 hours later. Full length PPARs plasmid DNA, reporter DNA confirming PPARs activity owing to its luciferase activity, β-galactosidase DNA providing information on transfection efficiency, and transfection reagent were used for the transfection. Samples were dissolved in dimethylsulfoxide (DMSO), which were treated to the cells via media at different concentrations. After culturing the cells in the incubator for 24 hours, the cells were lysed by using lysis buffer. Luciferase activity and β-galactosidase activity were measured with Luminometer and a microplate reader. The obtained values of luciferase were modified by the values of β-galactosidase. A graph was made with those values and EC50 was calculated.

| SMILES | EC50 hPPARγ |
| --- | --- |
| Cc1cc(SC(Cc2ccccc2)c2ccc(-c3cc(F)c(F)c(F)c3)cc2)ccc1OCC(=O)O (stereo not shown) [Compound 46] | ia |

target: T3, hPPARα (Homo sapiens, UniProt Q07869); experiment: Transfection assay (luciferase reporter), PPARα; assay type: cell-based; conditions: CV-1 cells, full length PPAR plasmid, 24 hours
T3 construct: Full length PPARs plasmid DNA; expressed in transfected cells; host or cells: CV-1 cells
T3 sequence (Q07869 1-468): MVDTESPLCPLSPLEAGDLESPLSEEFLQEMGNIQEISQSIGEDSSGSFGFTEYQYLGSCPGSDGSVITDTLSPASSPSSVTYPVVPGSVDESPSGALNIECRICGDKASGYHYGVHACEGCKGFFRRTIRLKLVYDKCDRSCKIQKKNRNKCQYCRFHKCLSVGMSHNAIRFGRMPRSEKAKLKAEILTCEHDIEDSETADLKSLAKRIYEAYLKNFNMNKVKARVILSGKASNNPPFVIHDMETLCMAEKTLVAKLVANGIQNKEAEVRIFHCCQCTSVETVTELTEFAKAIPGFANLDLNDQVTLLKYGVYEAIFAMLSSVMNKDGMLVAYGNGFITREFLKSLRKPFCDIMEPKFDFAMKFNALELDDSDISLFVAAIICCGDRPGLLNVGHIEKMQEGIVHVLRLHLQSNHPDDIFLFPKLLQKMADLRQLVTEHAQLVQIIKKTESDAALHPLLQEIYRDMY
Method: as §1, §2

| SMILES | EC50 hPPARα |
| --- | --- |
| Cc1cc(SC(Cc2ccccc2)c2ccc(-c3cc(F)c(F)c(F)c3)cc2)ccc1OCC(=O)O (stereo not shown) [Compound 46] | ia |

tested on: not listed separately; experiment: Obesity inhibitory effect, high-fat feed mice; assay type: in vivo, C57BL/6 mice; conditions: 10 mg/kg/day oral, 60 days, feeds containing 35% fat
Method: Obesity Inhibitory Effect
An animal test using mice was performed to confirm the in vivo effect of the compound of the present invention. C57BL/6 (SLC Co.) mice at 8 weeks were used. To induce obesity, feeds containing 35% fat were given. While feeding such high-fat feeds for 60 days, vehicle, S14, S46 and S106 (10 mg/kg/day) were orally administered.

| SMILES | weight increase compared with the vehicle group |
| --- | --- |
| Cc1cc(SC(Cc2ccccc2)c2ccc(-c3cc(F)c(F)c(F)c3)cc2)ccc1OCC(=O)O (stereo not shown) [Compound 46] | 43% |

tested on: not listed separately; experiment: Morris water maze test in LPS brain disease animal model; assay type: in vivo, C57BL/6 mice; conditions: Exercise (X)
Method: The therapeutic effect of the compound of the present invention on dementia and Parkinson's disease based on the memory improving effect thereof was investigated using brain disease animal model (C57BL/6 mice at 10 weeks). First, LPS was injected into the mouse brain to construct brain disease animal model. The mice were divided into four groups according to the administration and exercise. The exercise was performed with treadmill at the speed of 2 meter/min for the first 5 minutes, at 5 meter/min for 5 minutes, at 8 meter/min for 5 minutes and at 20 meter/min for the last 5 minutes. At the finish, Morris water maze test was performed. As a result, the therapeutic effect of the compound of the invention on dementia and Parkinson's disease via memory enhancement by the compound and exercise was confirmed in the brain disease animal model.

| SMILES | Results of water maze test |
| --- | --- |
| Cc1cc(SC(Cc2ccccc2)c2ccc(-c3cc(F)c(F)c(F)c3)cc2)ccc1OCC(=O)O (stereo not shown) [Compound 46] | 27 s |

same assay, conditions: Exercise (◯)

| SMILES | Results of water maze test |
| --- | --- |
| Cc1cc(SC(Cc2ccccc2)c2ccc(-c3cc(F)c(F)c(F)c3)cc2)ccc1OCC(=O)O (stereo not shown) [Compound 46] | 18 s |

tested on: not listed separately; experiment: Muscle endurance test (treadmill) in adult mice with forced exercise; assay type: in vivo, C57BL/6 mice; conditions: 10 mg/kg oral, adult mice at 10 weeks, 30 days treadmill exercise
Method: Particularly, S14, S46 and S106 were orally administered to C57BL/6 mice at 10 weeks at the concentration of 10 mg/kg, during which the mice were forced to exercise. The exercise was performed with treadmill for […] once a day for 30 days, precisely at the speed of 2 meter/min for the first 5 minutes, at 5 meter/min for 5 minutes, at 8 meter/min for 5 minutes and at 20 meter/min for the last 5 minutes. At the finish, muscle endurance and muscle function enhancing effect was tested by using treadmill. As a result, the time (S14 treated group: 1.5 fold, S46 treated group: 1.3 fold, S106 treated group: 1.4 fold increased) and distance (S14 treated group: 1.5 fold, S46 treated group: 1.3 fold, S106 treated group: 1.4 fold increased) of exercise were all increased in the treatment group, compared with the control.

| SMILES | distance of exercise, increase compared with the control | time of exercise, increase compared with the control |
| --- | --- | --- |
| Cc1cc(SC(Cc2ccccc2)c2ccc(-c3cc(F)c(F)c(F)c3)cc2)ccc1OCC(=O)O (stereo not shown) [Compound 46] | 1.3 fold | 1.3 fold |

tested on: not listed separately; experiment: Morris water maze test, treatment during pregnancy and lactation; assay type: in vivo; conditions: 10 mg/kg oral to pregnant mice in pregnancy and lactation; control 24.2 sec
Method: An animal test was performed to investigate the therapeutic effect of the compound of the present invention on dementia and Parkinson's disease based on the memory improving effect thereof. To confirm the effect of the compound of the present invention in the period of brain development, the compound was orally administered to pregnant mice at the concentration of 10 mg/kg in the periods of pregnancy and lactation. Morris water maze test was performed to detect any changes of the brain functions of the treatment group and the control group. This test facilitates the study of spatial learning and memory, which largely depends on the hippocampus in the brain.

| SMILES | average time spent to find the platform |
| --- | --- |
| Cc1cc(SC(Cc2ccccc2)c2ccc(-c3cc(F)c(F)c(F)c3)cc2)ccc1OCC(=O)O (stereo not shown) [Compound 46] | 7.8 s |

target: T1, hPPARδ; experiment: Transfection assay (luciferase reporter), PPARδ; assay type: cell-based; conditions: CV-1 cells, full length PPAR plasmid, 24 hours
Method: as §1, §2

| SMILES | EC50 |
| --- | --- |
| Cc1cc(SC(Cc2ccccc2)c2ccc(-c3cc(F)c(F)c(F)c3)cc2)ccc1OCC(=O)O (stereo not shown) [Compound 46] | 3.7 nM |

tested on: not listed separately; experiment: GTT (glucose tolerance test), diabetes improving effect; assay type: in vivo, mice; conditions: 10 mg/Kg/day oral, 57 days
Method: Diabetes Improving Effect
GTT (glucose tolerance test) was performed to confirm the diabetes improving effect of the compound of the present invention. Glucose (1.5 g/Kg) was intra-abdominally administered to the mice pre-treated orally with samples for 57 days. Blood glucose was measured every hour. Fasting blood glucose was lower in the S14, S46 and S106 (10 mg/Kg/day) treated groups than in control. […] In the meantime, the blood glucose level was not recovered to normal in the vehicle treated group even after 120 minutes.

| SMILES | fasting blood glucose versus control |
| --- | --- |
| Cc1cc(SC(Cc2ccccc2)c2ccc(-c3cc(F)c(F)c(F)c3)cc2)ccc1OCC(=O)O (stereo not shown) [Compound 46] | lower |

same assay, conditions: 10 mg/Kg/day oral, GTT

| SMILES | diabetes improving effect |
| --- | --- |
| Cc1cc(SC(Cc2ccccc2)c2ccc(-c3cc(F)c(F)c(F)c3)cc2)ccc1OCC(=O)O (stereo not shown) [Compound 46] | had diabetes improving effect |
